Laboratory results reported in ChEMBL document CHEMBL5370554, “Discovery of a first-in-class Aurora A covalent inhibitor for the treatment of triple negative breast cancer” (Eur J Med Chem, 2023).

Key:
[1] = molecular target: T1, Aurora kinase A (Homo sapiens, UniProt O14965); experiment: Inhibition of recombinant human Aurora A (1 to 403 residues) expressed in Escherichia coli using FAM-labeled peptide as substrate preincubated for 10 mins followed by substrate addition and measured after 20 mins in presence of ATP by HTRF assay
T1 sequence (O14965 whole entry): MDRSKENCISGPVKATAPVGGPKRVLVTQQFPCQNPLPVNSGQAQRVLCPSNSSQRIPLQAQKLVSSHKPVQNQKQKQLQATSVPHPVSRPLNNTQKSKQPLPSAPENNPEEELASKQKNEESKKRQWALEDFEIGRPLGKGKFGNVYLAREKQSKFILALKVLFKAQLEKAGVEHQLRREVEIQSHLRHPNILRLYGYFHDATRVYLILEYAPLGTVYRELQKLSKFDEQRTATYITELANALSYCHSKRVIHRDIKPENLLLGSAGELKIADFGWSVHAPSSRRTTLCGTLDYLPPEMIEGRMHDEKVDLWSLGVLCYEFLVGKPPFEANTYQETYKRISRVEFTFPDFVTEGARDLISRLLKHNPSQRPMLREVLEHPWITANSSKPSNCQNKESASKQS

[2] = system: SJSA-1; experiment: Antiproliferative activity against human SJSA-1 cells assessed as inhibition of cell proliferation incubated for 48 hrs by CCK-8 assay; format: functional, cell-based; conditions: SJSA-1, 48 h
[3] = system: MDA-MB-231; experiment: Antiproliferative activity against human MDA-MB-231 cells assessed as inhibition of cell proliferation incubated for 48 hrs by CCK-8 assay; format: functional, cell-based; conditions: MDA-MB-231, 48 h
[4] = system: A549; experiment: Antiproliferative activity against human A549 cells assessed as inhibition of cell proliferation incubated for 48 hrs by CCK-8 assay; format: functional, cell-based; conditions: A549, 48 h
[5] = system: HeLa; experiment: Antiproliferative activity against human HeLa cells assessed as inhibition of cell proliferation incubated for 48 hrs by CCK-8 assay; format: functional, cell-based
[6] = Cytotoxicity against human L02 cells assessed as inhibition of cell proliferation incubated for 48 hrs by CCK-8 assay; format: toxicity, cell-based
[7] = system: MDA-MB-231; experiment: Antitumor activity against human MDA-MB-231 cells xenografted in BALB/c nude mouse assessed as tumor growth inhibition at 30 mg/kg,ip every 2days for 20 days; format: functional; conditions: MDA-MB-231, 480 h, time 20 day, read-out: TGI
[8] = Toxicity in BALB/c nude mouse xenografted with human MDA-MB-231 cells assessed as body weight change at 30 mg/kg,ip every 2days for 20 days; format: organism-based; conditions: in vivo, 480 h, time 20 day

| IC50 [1] | IC50 [2] | IC50 [3] | IC50 [4] | IC50 [5] | SMILES | IC50 at 48 h [6] | inhibition in vivo at 30 mg/kg [7] | Activity [8] |
| --- | --- | --- | --- | --- | --- | --- | --- | --- |
| 0.005 µM | 28.6 µM | 2.2 µM | 1.18 µM | 17.9 µM | CCC(=O)Nc1ccc(-c2nc(Nc3cc(C)[nH]n3)c3ccc(N4CCN(C)CC4)cc3n2)cc1 | 24.7 µM | – | – |
| 0.0031 µM | 2.82 µM | 0.64 µM | 4.12 µM | 4.88 µM | Cc1cc(Nc2nc(-c3ccc(N)cc3)nc3cc(N4CCN(C)CC4)ccc23)n[nH]1 | – | – | – |
| 0.002 µM | 10.7 µM | 1.49 µM | 2.15 µM | 6.8 µM | Cc1cc(Nc2nc(-c3cccc(O)c3)nc3cc(N4CCN(C)CC4)ccc23)n[nH]1 | – | – | – |
| – | 12.5 µM | 6.96 µM | 1.77 µM | 7.52 µM | Cc1cc(Nc2nc(-c3cccc(N)c3)nc3cc(N4CCOCC4)ccc23)n[nH]1 | – | – | – |
| – | 6.54 µM | 4.39 µM | 1.64 µM | 7.3 µM | Cc1cc(Nc2nc(-c3ccc(N)cc3)nc3cc(N4CCOCC4)ccc23)n[nH]1 | – | – | – |
| 0.0015 µM | 6.8 µM | 2.6 µM | 3.27 µM | 4.22 µM | C=CC(=O)Nc1cccc(-c2nc(Nc3cc(C)[nH]n3)c3ccc(N4CCN(C)CC4)cc3n2)c1 | – | – | – |
| – | 56.7 µM | 5.21 µM | 2.65 µM | 9.02 µM | Cc1cc(Nc2cc(N3CCN(C)CC3)nc(/C=C/c3ccccc3)n2)n[nH]1 [ENMD-2076] | 42.6 µM | 30.9% | Non-Toxic |
| 0.0017 µM | 12.5 µM | 5.9 µM | 0.85 µM | 2.23 µM | C=CC(=O)Nc1cccc(-c2nc(Nc3cc(C)[nH]n3)c3ccc(N4CCOCC4)cc3n2)c1 | – | – | – |
| 0.0011 µM | 23.6 µM | 1.66 µM | 0.31 µM | 9.13 µM | C=CC(=O)Nc1cc(-c2nc(Nc3cc(C)[nH]n3)c3ccc(N4CCN(C)CC4)cc3n2)ccc1C | 34.2 µM | – | – |
| – | 18.8 µM | 1.44 µM | 1.44 µM | 5.5 µM | Cc1cc(Nc2nc(-c3ccccc3)nc3cc(N4CCN(C)CC4)ccc23)n[nH]1 | 2.74 µM | – | – |
| 0.011 µM | 2.66 µM | 0.76 µM | 1.13 µM | 8.3 µM | Cc1cc(Nc2nc(-c3ccccc3N)nc3cc(N4CCN(C)CC4)ccc23)n[nH]1 | – | – | – |
| 0.0027 µM | 14.8 µM | 2.66 µM | 0.26 µM | 5.51 µM | C=CC(=O)Nc1ccc(-c2nc(Nc3cc(C)[nH]n3)c3ccc(N4CCOCC4)cc3n2)cc1 | 43.2 µM | – | – |
| 0.045 µM | 13.9 µM | 13.4 µM | 19.7 µM | 41.2 µM | C=CC(=O)Nc1ccccc1-c1nc(Nc2cc(C)[nH]n2)c2ccc(N3CCN(C)CC3)cc2n1 | – | – | – |
| 0.0055 µM | 11.6 µM | 2.43 µM | 2.69 µM | 3.8 µM | Cc1cc(Nc2nc(-c3ccccc3O)nc3cc(N4CCN(C)CC4)ccc23)n[nH]1 | – | – | – |
| 0.0021 µM | 3.67 µM | 1.75 µM | 2.06 µM | 6.77 µM | Cc1cc(Nc2nc(-c3cccc(N)c3)nc3cc(N4CCN(C)CC4)ccc23)n[nH]1 | – | – | – |
| 0.0025 µM | 17.4 µM | 1.34 µM | 4.74 µM | 9.68 µM | Cc1cc(Nc2nc(-c3ccc(O)cc3)nc3cc(N4CCN(C)CC4)ccc23)n[nH]1 | – | – | – |

| SMILES | IC50 [1] | IC50 [2] | IC50 [3] | IC50 [4] | IC50 [5] | IC50 at 48 h [6] | inhibition in vivo at 30 mg/kg [7] | Activity [8] |
| --- | --- | --- | --- | --- | --- | --- | --- | --- |
| Cc1cc(Nc2nc(-c3ccc(OS(=O)(=O)F)cc3)nc3cc(N4CCN(C)CC4)ccc23)n[nH]1 | 0.025 µM | 23.1 µM | 4.34 µM | 1.15 µM | 4.87 µM | – | – | – |
